Test results taken from patent US10131663B2, “Chemical compounds” (AstraZeneca AB, priority 2016, dated 2018).

Key:
[1] = Human plasma protein binding (equilibrium dialysis); format: in vitro ADME; settings: dialysis 18 hours
How it was run: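 Fraction unbound (fu %) in human plasma, from LC/MSMS of plasma and buffer sides (7-point plasma calibration) after 18 h rapid equilibrium dialysis. Single determinations, with compounds pooled up to 10 per plasma pool.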

[2] = Human Caco-2 bidirectional permeability A to B and B to A; format: in vitro ADME; settings: for Papp at 2 h: Caco-2, 2 hours, pH 7.4; for efflux ratio at 2 h: Caco-2, pH 7.4
hERG potassium channel = hERG potassium channel (Homo sapiens (Human), UniProt Q12809); experiment: hERG binding assay (automated patch clamp, CHO cells); format: cell-based; settings: CHO cell line, Nanion Syncropatch 384PE
hERG potassium channel, sequence (Q12809 whole entry): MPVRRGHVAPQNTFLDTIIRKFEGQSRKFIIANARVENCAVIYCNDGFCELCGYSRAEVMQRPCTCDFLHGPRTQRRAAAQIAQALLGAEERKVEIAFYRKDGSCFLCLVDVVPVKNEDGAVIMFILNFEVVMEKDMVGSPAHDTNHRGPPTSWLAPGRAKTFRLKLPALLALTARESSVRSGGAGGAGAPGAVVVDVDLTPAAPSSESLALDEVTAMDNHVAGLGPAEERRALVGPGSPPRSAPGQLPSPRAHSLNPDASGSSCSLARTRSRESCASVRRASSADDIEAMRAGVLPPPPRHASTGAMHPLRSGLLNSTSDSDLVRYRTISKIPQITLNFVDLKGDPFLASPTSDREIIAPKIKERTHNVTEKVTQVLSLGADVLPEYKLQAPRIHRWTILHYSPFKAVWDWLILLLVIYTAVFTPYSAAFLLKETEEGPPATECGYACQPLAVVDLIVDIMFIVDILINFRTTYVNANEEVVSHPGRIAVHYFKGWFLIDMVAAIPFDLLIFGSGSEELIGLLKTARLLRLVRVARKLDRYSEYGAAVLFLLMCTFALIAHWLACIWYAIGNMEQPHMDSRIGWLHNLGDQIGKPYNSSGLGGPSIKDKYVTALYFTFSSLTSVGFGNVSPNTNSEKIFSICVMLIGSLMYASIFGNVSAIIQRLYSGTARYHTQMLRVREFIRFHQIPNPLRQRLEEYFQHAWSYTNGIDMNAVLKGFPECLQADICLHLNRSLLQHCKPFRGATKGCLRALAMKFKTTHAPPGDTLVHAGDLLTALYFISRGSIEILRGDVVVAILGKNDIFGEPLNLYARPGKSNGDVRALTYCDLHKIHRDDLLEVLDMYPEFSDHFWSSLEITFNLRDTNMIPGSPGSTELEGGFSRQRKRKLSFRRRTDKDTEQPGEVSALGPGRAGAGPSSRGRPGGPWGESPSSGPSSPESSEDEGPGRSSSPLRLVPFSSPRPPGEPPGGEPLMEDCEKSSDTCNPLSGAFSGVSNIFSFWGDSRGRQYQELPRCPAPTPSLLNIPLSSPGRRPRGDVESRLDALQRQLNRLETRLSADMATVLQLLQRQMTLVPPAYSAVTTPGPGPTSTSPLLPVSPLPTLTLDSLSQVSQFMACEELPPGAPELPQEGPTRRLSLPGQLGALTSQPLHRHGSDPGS
How it was run: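 CHO cells on automated patch clamp; compounds tested in quadruplicate. Currents evoked every 15 s from −80 mV holding by a 500 ms step to 60 mV then 500 ms to −40 mV.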

[3] = molecular target: T1, Estrogen Receptor (ERα) in MCF-7 cells (Homo sapiens (Human), UniProt P03372); experiment: Western blotting assay, ER down-regulation in MCF-7; format: cell-based; settings: 100 nM compound, 48 h, normalised to 100 nM fulvestrant
T1 sequence (P03372 whole entry): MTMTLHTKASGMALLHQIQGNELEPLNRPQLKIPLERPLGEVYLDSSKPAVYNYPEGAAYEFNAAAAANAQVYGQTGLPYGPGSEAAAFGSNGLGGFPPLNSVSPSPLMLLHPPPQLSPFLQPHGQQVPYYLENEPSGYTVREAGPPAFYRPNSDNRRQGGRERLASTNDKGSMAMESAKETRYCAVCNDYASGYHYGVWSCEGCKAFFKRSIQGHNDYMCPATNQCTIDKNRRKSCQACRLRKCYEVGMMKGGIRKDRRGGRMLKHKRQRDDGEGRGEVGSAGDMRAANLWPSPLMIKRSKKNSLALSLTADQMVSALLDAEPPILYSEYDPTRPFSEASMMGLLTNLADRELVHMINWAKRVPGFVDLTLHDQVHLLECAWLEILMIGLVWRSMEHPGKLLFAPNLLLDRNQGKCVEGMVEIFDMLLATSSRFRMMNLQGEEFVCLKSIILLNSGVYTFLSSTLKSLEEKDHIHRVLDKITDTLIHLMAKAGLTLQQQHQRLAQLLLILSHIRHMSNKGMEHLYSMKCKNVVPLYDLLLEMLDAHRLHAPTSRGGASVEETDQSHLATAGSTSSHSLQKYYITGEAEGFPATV
How it was run: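 Cells treated with compounds at 100 nM or 0.1% DMSO vehicle for 48 h at 37 °C, then lysed; ERα detected by western blot with anti-ERα (SP1) rabbit monoclonal. Down-regulation normalised to vehicle (0%) and 100 nM fulvestrant (100%) run on the same gel.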

[4] = molecular target: T1, Estrogen Receptor (ERα) in MCF-7 cells; experiment: MCF-7 ER down-regulation assay (immuno-fluorescence); format: cell-based
How it was run: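 Compounds dispensed acoustically from DMSO stocks onto MCF-7 cells; cells fixed 20 min at room temperature, then automated immunostaining for ERα with overnight incubation at 4° C. Read-out is mean total ER fluorescence intensity normalized to cell number (intensity per cell), with curve fitting for concentration-response values.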

[5] = log D (shake flask, 1-octanol/aqueous buffer); format: physicochemical
How it was run: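 Distribution between 1-octanol and aqueous buffer at pH 7.4 was measured by shake flask, with compounds run in mixtures of ten. Relative concentrations in each phase were quantified by UPLC with quantitative MS. Caffeine served as a low-log D QC sample in all runs.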

[6] = pH 7.4, 1-octanol/aqueous buffer

Structure (SMILES) | Human plasma protein binding (% free) [1] | Papp at 2 h [2] | efflux ratio at 2 h [2] | IC50 (hERG potassium channel) | MCF7 Western % ER deg vs Fv [3] | IC50 [4] | logD [5, 6] | logD ([5]; 1-octanol/aqueous buffer, pH 7.4, pH 7.4, 1-octanol/aqueous buffer)
COc1cc(NC2CN(CCCF)C2)ccc1[C@@H]1c2ccc3[nH]ncc3c2C[C@@H](C)N1CC1(F)CC1 [Example 6, N-(4-((6S,8R)-7-((1-fluorocyclopropyl)methyl)-8-methyl-6,7,8,9-tetrahydro-3H-pyrazolo[4,3-f]isoquinolin-6-yl)-3-methoxyphenyl)-1-(3-fluoropropyl)azetidin-3-amine] | 34 % free | 0.9 ×10⁻⁶ cm/s | 28 | 9100 nM | 89% | 0.35 nM | 2.4 | –
COc1cc(NC2CN(CCCF)C2)ccc1[C@@H]1c2ccc3[nH]ncc3c2C[C@@H](C)N1CC(C)(F)F [Example 19, N-(4-((6S,8R)-7-(2,2-difluoropropyl)-8-methyl-6,7,8,9-tetrahydro-3H-pyrazolo[4,3-f]isoquinolin-6-yl)-3-methoxyphenyl)-1-(3-fluoropropyl)azetidin-3-amine] | 4.3 % free | 4.2 ×10⁻⁶ cm/s | 2.6 | 5400 nM | 92% | 0.063 nM | 3.7 | –
C[C@@H]1Cc2c(ccc3[nH]ncc23)[C@@H](c2ccc(NC3CN(CCCF)C3)cn2)N1CC(F)F [Example 25, 6-((6S,8R)-7-(2,2-difluoroethyl)-8-methyl-6,7,8,9-tetrahydro-3H-pyrazolo[4,3-f]isoquinolin-6-yl)-N-(1-(3-fluoropropyl)azetidin-3-yl)pyridin-3-amine] | 40 % free | 5 ×10⁻⁶ cm/s | 7.4 | 28000 nM | 98% | 0.33 nM | – | 2.5
